Test results taken from patent US20230338322A1, “GLYCERYLTRIACETATE (GTA) FOR USE IN IMPROVING BREATHING” (YISSUM RESEARCH DEVELOPMENT COMPANY OF THE HEBREW …, priority 2020, published 2023).

Columns and labels:
[1] = system: SARS-Cov2 (COVID-19 infection); experiment: Treating SARS-Cov2 infected patients (COVID-19 infection); assay type: in vivo, human; conditions: all 11 patients, age 60-89, PCR positive with respiratory symptoms; softgel GTA 12 ml daily oral, 5-10 days, no other medication
From the text: Eleven subjects, age 60-89 with various comorbidities, who were positive for COVID-19 infection by the PCR test and already developed respiratory-related symptoms of the disease. […] Treatment duration was between 5-10 days, according to recovery rate.

[2] = Treating Long-COVID (post-corona) patients with GTA capsules; assay type: in vivo, human; conditions: softgel GTA 12 ml daily oral
From the text: Long COVID is a range of symptoms that can last weeks or months after first being infected with the virus that causes COVID-19 or can appear weeks after infection. 5 Long-Covid subjects who recovered from COVID-19 infection (=became PCR negative) but still have significant breathing problems that compromised their daily physical activities. […] Treatment duration was between 5-10 days, according to recovery rate.

swine flu infection = conditions: human, in vivo, po
[3] = Madhavarao 2009, Segel 2011; cited from earlier work
tumor-model = conditions: GTA alone versus combination with chemotherapy (TMZ); WO13013061; cited from earlier work
[4] = aqueous solution; cited from earlier work
[5] = Treating asthmatic patients with GTA capsules
Experimental: These patients where orally administered softgel capsules filled with GTA at a daily dose of 12 ml, either 4 ml three times a day or 6 ml twice a day, during or immediately after meal. Treatment duration was 7 days.

[6] = Treating a bronchitis patient with GTA capsules; conditions: softgel GTA 12 ml daily for a total of 5 days
[7] = Treating lung cancer patient with breathing difficulties
Experimental: The patient started taking pure glyceryl-triacetate (GTA), encapsulated in hard-shell Vegicaps (produced by Capsugel), 12 ml a day, divided among 3 meals. After 3 days the patient increased the dose to 24 ml a day and after additional 3 days they consumed a daily dose of 30 ml GTA for a period of 1 month.

Structure (SMILES): CC(=O)OCC(COC(C)=O)OC(C)=O [GTA, Glyceryltriacetate]
- recovery from the disease [1]: fully recovered
- time to recovery from breathing problems ([2]; 5 Long-Covid patients): 5 to 10 days
- recovery from breathing problems ([2]; all 5 Long-Covid patients, no other medication): fully or almost fully recovered
- patient's healing compared to non-treated patients (swine flu infection): acceleration of patient's healing
- therapeutic benefit in Canavan disease clinical trials [3]: failed to show any therapeutic benefit
- improvement in in-vivo tumor-model (tumor-model): not by GTA by itself
- water solubility limit [4]: 0.25%
- duration of the beneficial effect ([5]; after 7 days of GTA 12 ml daily, then 2nd round required): 1-8 weeks
- patient-reported breathing ([5]; all 4 chronic asthmatic patients, softgel GTA 12 ml daily oral, 7 days, including giving up inhalation): outstanding improvement
- patient-reported coughing and breathing [6]: less to no coughing, improved breathing
- tumor mass on CT ([7]; GTA up to 30 ml daily for 1 month): no improvement in tumor mass
- self-reported breathing ([7]; within 2 days after start of GTA 12 ml a day): breathing is much easier
- use of inhaled Salbutamol ([7]; within a week, GTA 12 ml then 24 ml a day): stopped taking Salbutamol
- walking distance without taking a break ([7]; within a week, before treatment not more than ~50 m): hundreds of meters
